# Assay results published in paper PMC9954641, “Molecular Insight into Drug Resistance Mechanism Conferred by Aberrant PIK3CD Splice Variant in African American Prostate Cancer” (Cancers, 2023).
# Read-outs that look alike come from different tables or passages of the source.
# Legend:
# Type in all cases: biochemical
# [1] = molecular target: T1, PI3Kδ-L (full-length PI3Kδ) (Homo sapiens, UniProt O00329); assay: cell-free PI3 kinase activity assay at […]; also ATP-competitive binding assay ([…] less ATP bound)
# T1 construct: gene PIK3CD; full-length PI3Kδ-L, V5-His tagged, Ni-NTA purified from transfected LNCaP and MDA PCa 2b cells
# T1 sequence (O00329 1-1044): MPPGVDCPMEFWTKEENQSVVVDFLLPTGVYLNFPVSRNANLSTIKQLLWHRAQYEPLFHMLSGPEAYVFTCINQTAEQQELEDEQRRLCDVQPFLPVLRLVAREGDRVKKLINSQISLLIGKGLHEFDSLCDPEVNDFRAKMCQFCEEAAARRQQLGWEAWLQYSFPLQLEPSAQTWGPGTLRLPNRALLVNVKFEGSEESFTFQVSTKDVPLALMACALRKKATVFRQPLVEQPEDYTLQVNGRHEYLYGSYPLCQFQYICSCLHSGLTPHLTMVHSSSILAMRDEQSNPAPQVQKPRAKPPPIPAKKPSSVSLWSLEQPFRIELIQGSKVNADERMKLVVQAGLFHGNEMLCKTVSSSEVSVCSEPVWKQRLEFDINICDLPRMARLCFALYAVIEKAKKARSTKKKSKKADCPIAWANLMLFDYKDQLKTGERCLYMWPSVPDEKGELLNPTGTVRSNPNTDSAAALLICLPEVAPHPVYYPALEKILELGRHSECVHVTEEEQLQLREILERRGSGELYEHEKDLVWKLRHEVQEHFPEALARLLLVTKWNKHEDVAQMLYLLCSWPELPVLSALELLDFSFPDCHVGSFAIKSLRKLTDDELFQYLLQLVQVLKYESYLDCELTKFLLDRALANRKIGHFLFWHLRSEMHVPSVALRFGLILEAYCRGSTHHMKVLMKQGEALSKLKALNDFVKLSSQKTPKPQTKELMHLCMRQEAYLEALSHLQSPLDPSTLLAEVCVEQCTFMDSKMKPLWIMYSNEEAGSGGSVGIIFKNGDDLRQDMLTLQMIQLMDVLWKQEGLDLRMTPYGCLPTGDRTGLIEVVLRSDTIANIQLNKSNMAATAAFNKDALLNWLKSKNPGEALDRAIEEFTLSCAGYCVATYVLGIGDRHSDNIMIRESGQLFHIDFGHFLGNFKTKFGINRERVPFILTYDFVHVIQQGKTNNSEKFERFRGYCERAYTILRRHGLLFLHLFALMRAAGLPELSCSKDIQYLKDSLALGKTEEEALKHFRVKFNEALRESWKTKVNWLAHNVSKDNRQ
# [2] = molecular target: T1, PI3Kδ-L (full-length PI3Kδ); assay: as above; remark: listed apart in the source
# [3] = molecular target: T1, PI3Kδ-L (full-length PI3Kδ); assay: cell-free PI3 kinase activity assay at […] (no effect at […] on MDA PCa 2b-derived protein); also ATP-competitive binding assay ([…] less ATP bound)
compound,measurement,setting,value
Cn1c(=O)n(-c2ccc(C(C)(C)C#N)cc2)c2c3cc(-c4cnc5ccccc5c4)ccc3ncc21 [Dactolisib],cell-free PI3 kinase activity assay at 1 and 10 μM; also ATP-competitive binding,[1],"Idelalisib, Seletalisib, Wortmannin, and Dactolisib effectively suppressed the PI3Kδ-L activities"
[O-][n+]1cccc(-c2nc3c(Cl)cccc3cc2[C@@H](Nc2ncnc3cccnc23)C(F)(F)F)c1 [Seletalisib],cell-free PI3 kinase activity assay at 1 and 10 μM; also ATP-competitive binding,[2],"Idelalisib, Seletalisib, Wortmannin, and Dactolisib effectively suppressed the PI3Kδ-L activities"
COC[C@H]1OC(=O)c2coc3c2[C@@]1(C)C1=C(C3=O)[C@@H]2CCC(=O)[C@@]2(C)C[C@H]1OC(C)=O [Wortmannin],cell-free PI3 kinase activity assay at 1 and 10 μM (no effect at 1 μM on MDA PCa),[3],"Idelalisib, Seletalisib, Wortmannin, and Dactolisib effectively suppressed the PI3Kδ-L activities"
